This passage reports EC50 results from patent US11571423B2, “Small molecule modulators of human sting” (Curadev Pharma Limited, priority 2017, dated 2023).

Molecules are shown by their SMILES. pEC50: −log10 of the molar value. A value given as a limit tells only on which side of the number the result lay.

Sequence of hSTING(R232) (Q86WV6 whole entry H232R): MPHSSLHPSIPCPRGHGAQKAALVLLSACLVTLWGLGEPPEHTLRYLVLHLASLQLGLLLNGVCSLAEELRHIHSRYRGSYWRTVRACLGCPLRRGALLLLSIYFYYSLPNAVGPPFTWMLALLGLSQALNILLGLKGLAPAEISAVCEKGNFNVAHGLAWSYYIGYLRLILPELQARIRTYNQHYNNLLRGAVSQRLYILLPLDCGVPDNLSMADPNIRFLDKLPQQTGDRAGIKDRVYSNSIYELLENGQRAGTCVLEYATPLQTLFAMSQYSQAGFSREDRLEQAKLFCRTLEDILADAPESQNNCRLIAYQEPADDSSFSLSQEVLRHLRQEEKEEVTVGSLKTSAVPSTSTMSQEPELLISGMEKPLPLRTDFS

The experiment deals with hSTING(R232) (Homo sapiens, UniProt Q86WV6, H232R). Description: Luciferase reporter assay in HEK293T-hSTING-Luciferase cells, R232 (wild type) human STING. To be noted: 20 hr stimulation, read-out: R232 human activity (EC50 range). The experiment is classed as cell-based. The source says:
Stable Cell Line Generation • a) Stable STING expressing cells—Stable HEK293T STING-expressing cell lines were generated using plasmids purchased from Invivogen, CA, USA, that contain STING cDNA cloned into the pUNO-1 vector under hEF1-HTLV promoter and containing the Blasticidin selection cassette. The plasmids hSTING(R232), hSTING(H232), hSTING(HAQ) were directly procured from Invivogen while hSTING (AQ) and hSTING (Q) were derived from hSTING(HAQ) and hSTING (R232) plasmids respectively by using a PCR based site directed mutagenesis method. These vectors were individually transfected into HEK293T cells using Lipofectamine (Invitrogen) and transfected cells were selected under Blasticidin selection. These transfected cells were further subjected to clonal selection using the limiting dilution method to obtain clonally pure populations of HEK cells transfected with each of the above mentioned human STING variants. Only those clones were selected in which ligand independent activation of STING was minimal. • b) Stable Luciferase reporter gene expressing cells—Stable HEK293T Luciferase reporter gene expressing cell lines were generated using pCDNA4 plasmids under an IRF-inducible promoter. This promoter is comprised of five tandem interferon-stimulated response elements (ISRE) fused to an ISG54 minimal promoter. This vector was transfected into HEK293T cells using Lipofectamine (Invitrogen) and transfected cells were selected under Zeocin selection. These transfected cells were further subjected to clonal selection using the limiting dilution method to obtain clonally pure populations of HEK cells transfected the Luciferase reporter construct. Only those clones were selected in which ligand independent induction of luciferase was minimal.
5×10^5 clonally selected HEK293T-hSTING-Luciferase cells were seeded in 384-well plates in growth medium and stimulated with novel compounds. After 20 hr of stimulation supernatant were removed and secretary reporter gene activity were measured using the Quanti-Luc detection system (Invivogen) on a Spectramax i3X luminometer.
In the tables below, EC50 value ranges for exemplary compounds are given.
All compounds were first tested in a primary screen to obtain a ‘fold-induction’ over baseline levels of protein activity.
Broadly, the pEC50 is the EC50 on a negative log10 scale, so that one unit is a factor of ten. On to `CN1Cc2ccc(C(=O)NCc3cc4cc(N)ccc4o3)cc2N(Cc2c(F)cccc2Cl)C1=O` [Example 58, N-((5-aminobenzofuran-2-yl)methyl)-1-(2-chloro-6-fluorobenzyl)-3-methyl-2-oxo-1,2,3,4-tetrahydroquinazoline-7-carboxamide], for which the negative logarithm of the EC50 (pEC50) was less than 5.00. Then `CN1Cc2ccc(C(=O)NCc3ccc4c(c3)CC(=O)N4)cc2N(Cc2c(F)cccc2Cl)C1=O` [Example 59, 1-(2-chloro-6-fluorobenzyl)-3-methyl-2-oxo-N-((2-oxoindolin-5-yl)methyl)-1,2,3,4-tetrahydroquinazoline-7-carboxamide], with less than 5.00.

As for `COc1cc(F)c(CNC(=O)c2ccc3c(c2)N(Cc2c(F)cccc2Cl)C(=O)N(C)C3)c(F)c1` [Example 60, 1-(2-chloro-6-fluorobenzyl)-N-(2,6-difluoro-4-methoxybenzyl)-3-methyl-2-oxo-1,2,3,4-tetrahydroquinazoline-7-carboxamide], the negative-log EC50 (pEC50) was 5.00 to 6.00. Then `COc1cc(F)ccc1CNC(=O)c1ccc2c(c1)N(Cc1c(F)cccc1Cl)C(=O)N(C)C2` [Example 61, 1-(2-chloro-6-fluorobenzyl)-N-(4-flnoro-2-methoxybenzyl)-3-methyl-2-oxo-1,2,3,4-tetrahydroquinazoline-7-carboxamide], with less than 5.00. Then `CN1Cc2ccc(C(=O)NCc3c(F)cc(F)cc3F)cc2N(Cc2c(Cl)cccc2Cl)C1=O` [Example 62, l-(2,6-dichlorobenzyl)-3-methyl-2-oxo-N-(2,4,6-trifluorobenzyl)-1,2,3,4-tetrahydroquinazoline-7-carboxamide], with 5.00 to 6.00; and `COc1cccc(CN2C(=O)N(C)Cc3ccc(C(=O)NCc4c(F)cc(F)cc4F)cc32)c1F` [Example 63, 1-(2-fluoro-3-methoxybenzyl)-3-methyl-2-oxo-N-(2,4,6-trifluorobenzyl)-1,2,3,4-tetrahydroquinazoline-7-carboxamide], with 5.00 to 6.00; and `CN1Cc2ccc(C(=O)NCc3c(F)cc(F)cc3F)cc2N(Cc2cc(C3CC3)no2)C1=O` [Example 64, 1-((3-cyclopropylisoxazol-5-yl)methyl)-3-methyl-2-oxo-N-(2,4,6-trifluorobenzyl)-1,2,3,4-tetrahydroquinazoline-7-carboxamide], with less than 5.00.

Take `CN1Cc2ccc(C(=O)NCc3c(F)cc(F)cc3F)cc2N(Cc2cn3ccccc3n2)C1=O` [Example 65, 1-(imidazo[1,2-a]pyridin-2-ylmethyl)-3-methyl-2-oxo-N-(2,4,6-trifluorobenzyl)-1,2,3,4-tetrahydroquinazoline-7-carboxamide]: the negative logarithm of the EC50 (pEC50) was less than 5.00. Then `Cc1ccc(Cl)c(CN2C(=O)N(C)Cc3ccc(C(=O)NCc4c(F)cc(F)cc4F)cc32)c1F` [Example 66, 1-(6-chloro-2-fluoro-3-methylbenzyl)-3-methyl-2-oxo-N-(2,4,6-trifluorobenzyl)-1,2,3,4-tetrahydroquinazoline-7-carboxamide], with more than 6.00. As for `Cc1nn(C)c(CN2C(=O)N(C)Cc3ccc(C(=O)NCc4c(F)cc(F)cc4F)cc32)c1Br` [Example 67, 1-((4-bromo-1,3-dimethyl-1H-pyrazol-5-yl)methyl)-3-methyl-2-oxo-N-(2,4,6-trifluorobenzyl)-1,2,3,4-tetrahydroquinazoline-7-carboxamide], the figure is 5.00 to 6.00; as for `O=C(NCc1c(F)cc(F)cc1F)c1ccc2c(c1)N(Cc1c(F)cccc1Cl)C(=O)N(OCc1ccccc1)C2` [Example 68, 3-(benzyloxy)-1-(2-chloro-6-fluorobenzyl)-2-oxo-N-(2,4,6-trifluorobenzyl)-1,2,3,4-tetrahydroquinazoline-7-carboxamide], less than 5.00.

For the molecule `O=C(NCc1c(F)cc(F)cc1F)c1ccc2c(c1)N(Cc1c(F)cccc1Cl)C(=O)N(O)C2` [Example 69, 1-(2-chloro-6-fluorobenzyl)-3-hydroxy-2-oxo-N-(2,4,6-trifluorobenzyl)-1,2,3,4-tetrahydroquinazoline-7-carboxamide], the pEC50 is less than 5.00. As for `CN1Cc2ccc(C(=O)NCc3c(F)cc(F)cc3F)cc2N(Cc2cc(F)cc(F)c2)S1(=O)=O` [Example 70, 1-(3,5-difluorobenzyl)-3-methyl-N-(2,4,6-trifluorobenzyl)-3,4-dihydro-1H-benzo[c][1,2,6]thiadiazine-7-carboxamide 2,2-dioxide], the figure is 5.00 to 6.00; as for `CN1Cc2ncc(C(=O)NCc3c(F)cc(F)cc3F)cc2N(Cc2c(F)cccc2Cl)C1=O` [Example 71, 1-(2-chloro-6-fluorobenzyl)-3-methyl-2-oxo-N-(2,4,6-trifluorobenzyl)-1,2,3,4-tetrahydropyrido[3,2-d]pyrimidine-7-carboxamide], 5.00 to 6.00; as for `CN1Cc2ncc(C(=O)NCc3c(F)cc(F)cc3F)cc2N(Cc2cc(F)cc(F)c2)C1=O` [Example 72, 1-(3,5-difluorobenzyl)-3-methyl-2-oxo-N-(2,4,6-trifluorobenzyl)-1,2,3,4-tetrahydropyrido[3,2-d]pyrimidine-7-carboxamide], 5.00 to 6.00. Then `CN1Cc2ncc(C(=O)NCc3cc4ccccc4o3)cc2N(Cc2c(F)cccc2Cl)C1=O` [Example 73, N-(benzofuran-2-ylmethyl)-1-(2-chloro-6-fluorobenzyl)-3-methyl-2-oxo-1,2,3,4-tetrahydropyrido[3,2-d]pyrimidine-7-carboxamide], with less than 5.00. `C[C@H]1c2ccc(C(=O)NCc3c(F)cc(F)cc3F)cc2N(Cc2c(OCCOP(=O)(O)O)ccc(F)c2F)C(=O)N1C` [Example 91, (S)-2-(2-((3,4-dimethyl-2-oxo-7-((2,4,6-trifluorobenzyl)carbamoyl)-3,4-dihydroquinazolin-1(2H)-yl)methyl)-3,4-difluorophenoxy)ethyl dihydrogen phosphate]: the pEC50 is more than 6.00. As for `C[C@H]1c2ccc(C(=O)NCc3c(F)cc(F)cc3F)cc2N(Cc2ccc(OP(=O)(O)O)cc2F)C(=O)N1C` [Example 92, (S)-4-((3,4-dimethyl-2-oxo-7-((2,4,6-trifluorobenzyl)carbamoyl)-3,4-dihydroquinazolin-1(2H)-yl)methyl)-3-fluorophenyl dihydrogen phosphate], the figure is more than 6.00; as for `C[C@H]1c2ccc(C(=O)NCc3ccc(F)cc3OP(=O)(O)O)cc2N(Cc2c(F)cccc2Cl)C(=O)N1C` [Example 93, (S)-2-((1-(2-chloro-6-fluorobenzyl)-3,4-dimethyl-2-oxo-1,2,3,4-tetrahydroquinazoline-7-carboxamido)methyl)-5-fluorophenyl dihydrogen phosphate], more than 6.00. Regarding `C[C@H]1c2ccc(C(=O)NCc3c(F)cc(F)cc3F)cc2N(Cc2c(OP(=O)(O)O)ccc(F)c2F)C(=O)N1C` [Example 99, (S)-2-((3,4-dimethyl-2-oxo-7-((2,4,6-trifluorobenzyl)carbamoyl)-3,4-dihydroquinazolin-1(2H)-yl)methyl)-3,4-difluorophenyl dihydrogen phosphate], the pEC50 is 5.00 to 6.00. Then `C[C@H]1c2ccc(C(=O)NCc3c(F)cc(F)cc3F)cc2N(Cc2c(F)ccc(OCCCOP(=O)(O)O)c2F)C(=O)N1C` [Example 104, (S)-3-(3-((3,4-dimethyl-2-oxo-7-((2,4,6-trifluorobenzyl)carbamoyl)-3,4-dihydroquinazolin-1(2H)-yl)methyl)-2,4-difluorophenoxy)propyl dihydrogen phosphate], with more than 6.00. As for `C[C@H]1c2ccc(C(=O)NCc3c(F)cc(F)cc3F)cc2N(Cc2c(F)ccc(OC(=O)N(C)CCC(=O)OCc3ccccc3)c2Cl)C(=O)N1C` [Example 140, (S)-Benzyl 3-((2-chloro-3-((3,4-dimethyl-2-oxo-7-((2,4,6-trifluorobenzyl)carbamoyl)-3,4-dihydroquinazolin-1(2H)-yl)methyl)-4-fluorophenoxy)carbonyl)(methylamino)propanoate], the figure is less than 5.00; as for `C[C@H]1c2ccc(C(=O)NCc3c(F)cc(F)cc3F)cc2N(Cc2c(F)ccc(C(=O)O)c2F)C(=O)N1C` [Example 142, (S)-3-((3,4-Dimethyl-2-oxo-7-((2,4,6-trifluorobenzyl)carbamoyl)-3,4-dihydroquinazolin-1(2H)-yl)methyl)-2,4-difluorobenzoic acid], less than 5.00.

Consider `C[C@H]1c2ccc(C(=O)NCc3c(F)cc(F)cc3F)cc2N(Cc2c(F)ccc(C(=O)NCCO)c2F)C(=O)N1C` [Example 143], for which the pEC50 is more than 6.00.

Turning to `C[C@H]1c2ccc(C(=O)NCc3c(F)cc(O)cc3F)cc2N(Cc2c(F)cc(O)cc2F)C(=O)N1C` [Example 150, (S)—N,1-bis(2,6-Difluoro-4-hydroxybenzyl)-3,4-dimethyl-2-oxo-1,2,3,4-tetrahydroquinazoline-7-carboxamide], the pEC50 is more than 6.00. As for `C[C@H]1c2ccc(C(=O)N(CCO)Cc3c(F)cc(F)cc3F)cc2N(Cc2c(F)cccc2Cl)C(=O)N1C` [Example 151, (S)-1-(2-Chloro-6-fluorobenzyl)-N-(2-hydroxyethyl)-3,4-dimethyl-2-oxo-N-(2,4,6-trifluorobenzyl)-1,2,3,4-tetrahydroquinazoline-7-carboxamide], the figure is less than 5.00.
